# In ChEMBL document CHEMBL6121006, “Marine natural product-inspired discovery of novel BRD4 inhibitors with anti-inflammatory activity” (Eur J Med Chem, 2025):
# Active and inactive are the calls of the source. The rule behind the calls is not given here.
# Assays:
# [1] = target: T1, Bromodomain-containing protein 4 (Homo sapiens, UniProt O60885); test: Inhibition of human recombinant BRD4 BD2 (349 to 460 residues) extracted from Escherichia coli BL21 (DE3) at 10 uM incubated for 2 hrs by TR-FRET assay relative to control
# [2] = target: T1, Bromodomain-containing protein 4; test: Inhibition of human recombinant BRD4 BD1 (42 to 167 residues) extracted from Escherichia coli BL21 (DE3) at 10 uM incubated for 2 hrs by TR-FRET assay relative to control
# [3] = target: T1, Bromodomain-containing protein 4; test: Inhibition of human recombinant BRD4 BD2 (349 to 460 residues) extracted from Escherichia coli BL21 (DE3) incubated for 2 hrs by TR-FRET assay
# RAW264.7 [4] = test: Anti-inflammatory activity in mouse RAW264.7 cells assessed as inhibition of LPS-induced NO production at 10 uM preincubated with compound for 24 hrs followed by LPS stimulation by Griess reagent based analysis relative to control; type: functional; design: scale not given: the % may be the effect or the level left
# [5] = target: T1, Bromodomain-containing protein 4; test: Selectivity index, ratio of IC50 for human recombinant BRD4 BD1 (42 to 167 residues) extracted from Escherichia coli BL21 (DE3) to IC50 for human recombinant BRD4 BD2 (349 to 460 residues) extracted from Escherichia coli BL21 (DE3)
# [6] = target: T1, Bromodomain-containing protein 4; test: Inhibition of human recombinant BRD4 BD1 (42 to 167 residues) extracted from Escherichia coli BL21 (DE3) incubated for 2 hrs by TR-FRET assay
# RAW264.7 [7] = test: Anti-inflammatory activity in mouse RAW264.7 cells assessed as inhibition of LPS-induced NO production preincubated with compound for 24 hrs followed by LPS stimulation by Griess reagent based analysis; type: functional, cell-based
# RAW264.7 [8] = test: Anti-inflammatory activity in mouse RAW264.7 cells assessed as inhibition of LPS-induced TNF-alpha expression preincubated with compound for 2 hrs followed by LPS stimulation and measured after 6 hrs by RT-qPCR analysis; type: functional, cell-based; details: dose 2.5-20 µM, time 8.0 hrs
# RAW264.7 [9] = test: Anti-inflammatory activity in mouse RAW264.7 cells assessed as inhibition of LPS-induced IL-6 expression preincubated with compound for 2 hrs followed by LPS stimulation and measured after 6 hrs by RT-qPCR analysis; type: functional, cell-based; details: dose 2.5-20 µM, time 8.0 hrs
# THP-1 [10] = test: Anti-inflammatory activity in human THP-1 cells assessed as inhibition of LPS-induced IL-6 expression preincubated with compound for 2 hrs followed by LPS stimulation and measured after 6 hrs by RT-qPCR analysis; type: functional, cell-based; details: dose 2.5-20 µM, time 8.0 hrs
# THP-1 [11] = test: Anti-inflammatory activity in human THP-1 cells assessed as inhibition of LPS-induced TNF-alpha expression preincubated with compound for 2 hrs followed by LPS stimulation and measured after 6 hrs by RT-qPCR analysis; type: functional, cell-based; details: dose 2.5-20 µM, time 8.0 hrs
# [12] = target: T1, Bromodomain-containing protein 4; test: Inhibition of BRD4 (unknown origin)
inhibition [1] [%],inhibition [2],IC50 [3] [µM],Ratio IC50 [5],IC50 [6] [µM],SMILES,Activity (RAW264.7 [4]) [%],other results
17,16%,,,,O=C(c1ccc2ccccc2c1)c1nc2ccccc2c(=O)[nH]1,,
97,54%,0.74,> 13,> 10,COc1cc(OC)c2c(=O)[nH]c(CC(C)c3ccc(C(C)(C)C)cc3)nc2c1 (stereo not given),3.4,
99,,,,,COc1cc(OC)c2c(=O)[nH]c(-c3cc(C)c(OCCO)c(C)c3)nc2c1 [APABETALONE],74,IC50 (RAW264.7 [7]): 8.76 µM; Activity (RAW264.7 [8]): Dose-dependent-effect; Activity (RAW264.7 [9]): Dose-dependent-effect; Activity (THP-1 [10]): Dose-dependent-effect; Activity (THP-1 [11]): Dose-dependent-effect
46,51%,> 10,,7.87,COc1cc(OC)c2c(=O)[nH]c(C3CCN(Cc4ccccc4)CC3)nc2c1,89,IC50 (RAW264.7 [7]): 6.78 µM
59,20%,1.33,> 7,> 10,COc1cc(OC)c2c(=O)[nH]c(/C(C)=C/c3ccccc3)nc2c1,6.8,
66,3.1%,7.06,> 1,> 10,COc1cc(OC)c2c(=O)[nH]c(C=C(c3ccccc3)c3ccccc3)nc2c1,21,
42,54%,,,2.16,COc1ccc(C(=O)c2nc3ccccc3c(=O)[nH]2)cc1,5.4,
11,17%,,,,O=C(c1ccc(O)cc1)c1nc2ccccc2c(=O)[nH]1,,
15,22%,,,,COc1cc(C(=O)c2nc3ccccc3c(=O)[nH]2)cc(OC)c1OC,,

# Continued, compound first:
SMILES,inhibition [1] [%],inhibition [2],IC50 [3] [µM],Ratio IC50 [5],IC50 [6] [µM],Activity (RAW264.7 [4]) [%],other results
COc1cc(OC)c2c(=O)[nH]c(C(=O)c3ccc(OCCO)cc3)nc2c1,48,1.3%,,,,,
COc1ccc(CCc2nc3cc(OC)cc(OC)c3c(=O)[nH]2)cc1,86,12%,0.74,> 13,> 10,17,
COc1cc(OC)c2c(=O)[nH]c(C(=O)c3cc(OC)c(OC)c(OC)c3)nc2c1,17,11%,,,,,
COc1cc(OC)c2c(=O)[nH]c(C(=O)c3cccc(C#N)c3)nc2c1,48,12%,,,,,
COc1cc(OC)c2c(=O)[nH]c(/C=C/c3cc(OC)c(O)c(OC)c3)nc2c1,98,13%,0.39,> 26,> 10,18,
COc1ccc(Cc2nc3cc(OC)cc(OC)c3c(=O)[nH]2)cc1,75,56%,1.52,3,4.59,15,
COc1cc(OC)c2c(=O)[nH]c(C(=O)c3cccc(C(F)(F)F)c3)nc2c1,53,13%,> 10,,> 10,12,
COc1cc(OC)c2c(=O)[nH]c(C(=O)c3ccc(OC)c(OC)c3)nc2c1,47,13%,,,,,
COc1cccc(/C=C/c2nc3cc(OC)cc(OC)c3c(=O)[nH]2)c1,67,inactive,> 10,,,78,IC50 (RAW264.7 [7]): 5.22 µM; inhibition [6]: inactive
COc1ccc(C(=O)c2nc3cc(OC)cc(OC)c3c(=O)[nH]2)cc1,51,inactive,3.93,> 10,,6.4,inhibition [6]: inactive
COc1cc(OC)c2c(=O)[nH]c(C(=O)c3ccc(F)cc3)nc2c1,52,inactive,1.84,> 10,,18,inhibition [6]: inactive
COc1cc(OC)c2c(=O)[nH]c(C(=O)c3cc(F)ccc3F)nc2c1,46,10%,,,,,
COc1cc(OC)c2c(=O)[nH]c(/C=C/c3ccc(N(C)C)cc3)nc2c1,74,24%,0.47,> 21,> 10,24,
COc1ccc(C(=O)c2nc3cc(OC)c(I)c(OC)c3c(=O)[nH]2)cc1,53,10%,> 10,,> 10,14,
COc1cc(OC)c2c(=O)[nH]c(/C=C/c3ccc(Cl)cc3)nc2c1,54,23%,> 10,,> 10,11,
Cc1nnn(C)c1-c1cnc2c3cc4cnn(C)c4cc3n([C@H](c3ccccc3)C3CCOCC3)c2c1,,,,,,,IC50 [12]: 0.00245 µM
C[C@@H]1C[C@H]2[C@@H]3CCC4=CC(=O)C=C[C@]4(C)[C@@]3(F)[C@@H](O)C[C@]2(C)[C@@]1(O)C(=O)CO [DEXAMETHASONE],,,,,,29,
